Assay results published in publication PMC7998250, “Temperate Zone Plant Natural Products—A Novel Resource for Activity against Tropical Parasitic Diseases” (Pharmaceuticals, 2021).
Read-outs that look alike come from different tables or passages of the source.

Assays:
[1] = test system: P. falciparum Dd2Luc intraerythrocytic trophozoites; experiment: Initial screen, intraerythrocytic P. falciparum, Malaria SYBR-Green I fluorescence assay; assay type: cell-based, Plasmodium falciparum; conditions: for activity at 2 µM / inhibition of growth at 2 µM: Plasmodium falciparum, 48 h; for initial hit against P. falciparum: 2 μM, growth reduced by ≥50%; for inhibition of growth at 2 µM: read-out: initial hit P.f
How it was run: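 L. mexicana axenic amastigotes at 1 × 10^6 cells/mL exposed 72 h to compounds at 2 μM, growth read by Alamar Blue; P. falciparum trophozoites at 0.5% parasitaemia, 2% haematocrit, 48 h at 2 μM, SYBR-Green I read-out. Growth normalised to 1% DMSO; hits ≥50% growth reduction.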

[2] = test system: T. evansi bloodstream form; experiment: Initial screen, T. evansi bloodstream form, Alamar Blue; assay type: cell-based, Trypanosoma evansi; conditions: Trypanosoma evansi; for activity at 1 µM: initial screen
How it was run: (§1)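 Bloodstream-form T. evansi Antat 3/3 and T. brucei Lister 427 were grown in HMI-11 with 10% FBS at 37 °C. Parasites were plated at 1×10^5 cells/mL with compound at 1 μM (T. evansi) or 2 μM (T. brucei) for 48 h, and growth was read by Alamar Blue relative to 1% DMSO controls (n = 6).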

T. brucei = experiment: Concentration-response EC50, T. brucei; assay type: cell-based, Trypanosoma brucei brucei; conditions: for EC50: 48 h; for selectivity index (HepG2 CC50 / T. brucei EC50): preliminary selectivity against HepG2
Experimental: (§5) EC50 values were determined by serial two-fold dilution of each compound in 96 well plates. Culture conditions and viability assays were as stated for the initial screen, with some exceptions. L. mexicana and L. donovani axenic amastigotes were seeded at 2 × 10^6 cell/s mL, T. brucei and T. evansi were seeded at 2 × 10^5 cells/mL. For cytotoxicity studies, HepG2 cells were seeded at 1 × 10^5 cells/mL, incubated for 48 h and viability was assessed using the Alamar Blue assay [66, 67]. […] Normalised growth and viability data (compared to untreated controls) were plotted against Log10 concentration to estimate EC50 in GraphPad (Prism v6).

[3] = test system: T. brucei bloodstream form; experiment: Initial screen, T. brucei bloodstream form, Alamar Blue; assay type: cell-based, Trypanosoma brucei brucei; conditions: for initial hit against T. brucei: growth reduced by ≥50%; for inhibition of growth at 2 µM / activity at 2 µM: Trypanosoma brucei; for inhibition of growth at 2 µM: read-out: initial hit T.b
How it was run: as §1

HepG2 cells = experiment: Cytotoxicity CC50, HepG2, Alamar Blue; conditions: 48 h
Text: (§2) Initial hits from the parasite panel screen were taken forward in log concentration versus normalised response assays to estimate the half maximal effective concentration (EC50) in hit species as well as the half maximal cytotoxic concentrations (CC50) in the human hepatoma cell line HepG2 as a preliminary test for selectivity. Using CC50/EC50 to define the selectivity index (SI), the selectivity for each compound in a defined species compared to a human cell line was estimated and compared to the EC50 (Figure 3).
(§3) L. mexicana strain MNYC/BZ/62/M379 and L. donovani strain LdBOB (a clonal line from strain MHOM/SD/62/1S-CL2) were maintained in vitro in the procyclic promastigote stage. Parasites were cultivated at 26 °C in Schneider’s medium (Gibco) pH 7.0 containing 10% FBS, 100 U/mL penicillin (Lonza) and 100 μg/mL streptomycin (Lonza) as previously described. Differentiation into axenic amastigotes was performed as described previously. Briefly, axenic amastigotes were cultivated at 32 °C in Schneider’s medium pH 5.5 containing 10% FBS, 100 U/mL penicillin (Lonza) and 100 μg/mL streptomycin (Lonza). Bloodstream form T. brucei brucei strain Lister 427 and T. evansi strain Antat 3/3 [59] were maintained in vitro at 37 °C with 5% (v/v) CO2 in HMI-11 medium supplemented with 10% FBS, as described elsewhere. Intraerythrocytic cultures of P. falciparum Dd2^Luc strain [62] were maintained at 37 °C in a 1% O2:3% CO2:96% N2 atmosphere in RPMI-1640 containing 37.5 mM HEPES, 5 mM NaOH, 10 mM D-glucose, 2 mM L-glutamine, 100 μM hypoxanthine, […] gentamicin sulfate, 5% human serum and 5% albumax-II and 2% haematocrit erythrocytes. When required, cultures were synchronised to ring stages using the sorbitol lysis method. Preliminary cytotoxicity screening was assessed using HepG2 cells. These cells were maintained in vitro at 37 °C with 5% (v/v) CO2 in DMEM (Sigma) pH 7 supplemented with 10% FBS, 100 U/mL penicillin (Lonza) and 100 μg/mL streptomycin (Lonza), as previously described. The human monocyte cell line THP-1 [68] was maintained in vitro by culturing at 37 °C with 5% (v/v) CO2 in complete RPMI medium (Dutch modified RPMI-1640 (Gibco) containing 10% FBS and 2 mM L-glutamine (Gibco)). Differentiation of THP-1 cells into macrophages was performed by seeding 2.5 × 10^5 cells/mL in complete RPMI media, supplemented with 20 ng/mL phorbol 12-myristate 13-acetate (PMA), followed by incubation at 37 °C with 5% (v/v) CO2 for 24 h.
(§4) EC50 values were determined by serial two-fold dilution of each compound in 96 well plates. Culture conditions and viability assays were as stated for the initial screen, with some exceptions. L. mexicana and L. donovani axenic amastigotes were seeded at 2 × 10^6 cell/s mL, T. brucei and T. evansi were seeded at 2 × 10^5 cells/mL. For cytotoxicity studies, HepG2 cells were seeded at 1 × 10^5 cells/mL, incubated for 48 h and viability was assessed using the Alamar Blue assay. Differentiated THP-1 cells were seeded at 5 × 10^4 cells/mL, incubated for 48 h, and viability was assessed by the Alamar Blue assay. Normalised growth and viability data (compared to untreated controls) were plotted against Log10 concentration to estimate EC50 in GraphPad (Prism v6). Bioluminescence relative rate of kill assays in asexual intraerythrocytic P. falciparum Dd2^Luc were carried out as described.

[4] = Cytotoxicity CC50, HepG2, Alamar Blue; conditions: human
Text: as §2, §3, §4

T. evansi = experiment: Concentration-response EC50, T. evansi; assay type: cell-based; conditions: Trypanosoma evansi, 48 h, read-out: T. evansi EC50
Experimental: as §5

P. falciparum 3D7 = experiment: Concentration-response EC50, P. falciparum 3D7; assay type: cell-based; conditions: Plasmodium falciparum
Text: This is not surprising as the rate of kill is a result of the mechanism of cell death and, given their structural similarity, these three bisobolane sesquiterpene glycosides likely share the same target(s), albeit with some differences in affinity. The rate of kill, relatively, falls between that of atovaquone and dihydroartemisinin and is more similar to that of chloroquine.

[5] = test system: L. mexicana axenic amastigotes; experiment: Initial screen, L. mexicana axenic amastigotes, Alamar Blue; assay type: cell-based, Leishmania mexicana; conditions: Leishmania mexicana
How it was run: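 Purified temperate plant natural products from a commercial library (1 mg/mL in DMSO) were tested against Leishmania mexicana axenic amastigotes at a final 2 μM. Parasites were seeded at 1 × 10^6 cells/mL in 96-well plates containing 200 μL culture and incubated 72 h. Growth was measured by Alamar Blue and normalised to DMSO controls (1% v/v), with triplicates over two biological replicates (n = 6).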

P. falciparum Dd2Luc = experiment: Concentration-response EC50, P. falciparum Dd2Luc; assay type: cell-based, Plasmodium falciparum; conditions: Plasmodium falciparum, 48 h, read-out: P. falciparum Dd2Luc EC50, intraerythrocytic, 48 h
Experimental: as §5

[6] = read-out: %growth P. falciparum, mean % growth compared to a normalised control with same concentration of DMSO solvent, initial screen
[7] = Trypanosoma brucei, bloodstream form, read-out: T. brucei EC50
[8] = 3D7, read-out: P. falciparum 3D7 EC50
[9] = read-out: % growth L. mexicana, mean % growth compared to a normalised control with same concentration of DMSO solvent, initial screen
[10] = Trypanosoma brucei, read-out: T. brucei EC50, bloodstream form, 48 h
[11] = read-out: % growth T. b. brucei, mean % growth compared to a normalised control with same concentration of DMSO solvent, initial screen
[12] = mean % growth compared to a normalised control with same concentration of DMSO solvent, initial screen
[13] = 3D7, intraerythrocytic, read-out: P. falciparum 3D7 EC50
[14] = read-out: mean % growth, P. falciparum, initial screen, compared to a normalised control with same concentration of DMSO solvent
[15] = read-out: mean % growth, L. mexicana, initial screen, compared to a normalised control with same concentration of DMSO solvent
[16] = compared to a normalised control with same concentration of DMSO solvent, read-out: mean % growth, T. evansi
[17] = initial screen, compared to a normalised control with same concentration of DMSO solvent, read-out: mean % growth, T. b. brucei

Compound: CC(=O)OC1C(C)OC(OC2C(OC(=O)C3CC[C@@H]4[C@H](C3)OC3(CC(OC(=O)/C=C/c5ccccc5)[C@@H](C)CO3)C4(O)CO)OC(C)C(O)C2OC(C)=O)C(O)C1O (stereo partly drawn) [Compound 700035]
- activity at 2 µM [1, 6]: 90.1%
- activity at 1 µM ([2]; mean % growth compared to a normalised control with same concentration of DMSO solvent, read-out: % growth T. evansi): 105%
- EC50 (T. brucei; [7]): 350 nM
- EC50 (T. brucei; bloodstream form, read-out: T. brucei EC50): 360 nM
- initial hit against T. brucei ([3]; 2 μM): initial hits
- inhibition of growth at 2 µM ([3]; 2 μM, x = initial hit): > 50%
- CC50 (HepG2 cells; read-out: HepG2 CC50): 15000 nM
- CC50 at 48 h ([4]; pH 7, HepG2 CC50, 48 h): 15200 nM

Compound: CC(=O)OC1C(O)C(C)OC(OC2C(OC(=O)C3CC[C@@H]4[C@H](C3)OC3(CC(OC(=O)/C=C/c5ccccc5)[C@@H](C)CO3)C43CO3)OC(CO)C(O)C2O)C1O (stereo partly drawn) [Compound 700046]
- EC50 (T. evansi): 118 nM
- EC50 (P. falciparum 3D7; [8]): 34 nM
- initial hit against P. falciparum [1]: initial hits
- activity at 2 µM [1, 6]: 9.8%
- inhibition of growth at 2 µM [1]: > 50%
- activity at 2 µM [5, 9]: 83.4%
- activity at 1 µM ([2]; read-out: % growth T. evansi, mean % growth compared to a normalised control with same concentration of DMSO solvent): 2.9%
- inhibition of growth at 1 µM ([2]; read-out: initial hit T.e): > 50%
- EC50 (P. falciparum Dd2Luc): 56 nM
- EC50 (T. brucei; [10]): 180 nM
- selectivity index (HepG2 CC50 / T. brucei EC50) (T. brucei): > 10
- initial hit against T. brucei ([3]; 2 μM): initial hits
- activity at 2 µM [3, 11]: 5.6%
- inhibition of growth at 2 µM [3]: > 50%

Compound: CC(=O)OC1C(O)C(C)OC(OC2C(OC(=O)C3CC[C@@H]4[C@H](C3)OC3(CC(OC(=O)/C=C/c5ccccc5)[C@@H](C)CO3)C43CO3)OC(CO)C(O)C2OC(C)=O)C1O (stereo partly drawn) [Compound 700048]
- EC50 (P. falciparum 3D7; [8]): 360 nM
- initial hit against P. falciparum [1]: initial hits
- inhibition of growth at 2 µM [1]: > 50%
- %growth P. falciparum [1, 12]: 20.3%
- activity at 2 µM [5, 9]: 89%
- EC50 (P. falciparum Dd2Luc): 150 nM
- EC50 (T. brucei; [10]): 160 nM
- selectivity index (HepG2 CC50 / T. brucei EC50) (T. brucei): > 10
- initial hit against T. brucei ([3]; 2 μM): initial hits
- inhibition of growth at 2 µM [3]: > 50%
- % growth T. b. brucei [3, 12]: 5.8%

Compound: COc1cc(/C=C/C(=O)OC2CC3(C[C@H]4C=C(C(=O)OC5OC(CO)C(O)C(OC(C)=O)C5OC5OC(C)C(O)C(OC(C)=O)C5O)CC[C@H]4C34CO4)OC[C@@H]2C)ccc1O (stereo partly drawn) [Compound 700104]
- EC50 (P. falciparum 3D7; [8]): 350 nM
- initial hit against P. falciparum [1]: initial hits
- activity at 2 µM [1, 6]: 31.6%
- inhibition of growth at 2 µM [1]: > 50%
- activity at 2 µM [5, 9]: 146%
- EC50 (P. falciparum Dd2Luc): 750 nM
- activity at 2 µM [3, 11]: 69.7%

Compound: C=C1C(OC(=O)/C=C/c2ccccc2)C(CC(C)=O)C(O)C2(C)CCC3=C(C)C(OC(C)=O)CC(CC12)C3(C)C (stereo not drawn) [Compound 700535]
- EC50 (P. falciparum 3D7; [13]): 3300 nM
- initial hit against P. falciparum [1]: initial hits
- inhibition of growth at 2 µM [1]: > 50%
- activity at 2 µM [1, 14]: 31%
- activity at 2 µM [5, 15]: 68.2%
- activity at 1 µM [2, 16]: 78.7%
- EC50 (P. falciparum Dd2Luc): 2300 nM
- activity at 2 µM [3, 17]: 99.4%

Compound: CC1(C)OC2CC(=O)C=CC2(c2cc(=O)c3c(O)cc(O)cc3o2)O1 (stereo not drawn) [Compound 700585]
- activity at 2 µM [1, 14]: 95.2%
- activity at 2 µM [5, 15]: 78%
- EC50 (T. brucei; [7]): 430 nM
- selectivity index (HepG2 CC50 / T. brucei EC50) (T. brucei): > 10
- initial hit against T. brucei ([3]; 2 μM): initial hits
- activity at 2 µM [3, 17]: 40.8%
- inhibition of growth at 2 µM ([3]; 2 μM, x = initial hit): > 50%
- CC50 (HepG2 cells; human, pH 7): 5300 nM
- CC50 at 48 h ([4]; pH 7, HepG2 CC50): < 10000 nM

Compound: CC(=O)OC1C(COC(=O)/C=C/c2ccc(O)cc2)OC(Oc2c(-c3ccc(O)cc3)oc3cc(O)cc(O)c3c2=O)C(OC(=O)/C=C/c2ccc(O)cc2)C1OC(C)=O (stereo not drawn) [Compound 701082]
- EC50 (P. falciparum 3D7; [13]): 1600 nM
- activity at 2 µM [1, 14]: 77%
- activity at 2 µM [5, 15]: 67.8%
- EC50 (P. falciparum Dd2Luc): 1200 nM
- EC50 (T. brucei; [7]): 1100 nM
- initial hit against T. brucei ([3]; 2 μM): initial hits
- activity at 2 µM [3, 17]: 5%
- inhibition of growth at 2 µM ([3]; 2 μM, x = initial hit): > 50%
- CC50 at 48 h ([4]; pH 7, HepG2 CC50): 4600 nM

Compound: COC(=O)C1=COC(O)C2C1CC(OC(=O)/C=C/c1ccc(O)cc1)C2C (stereo not drawn) [Compound 701145]
- activity at 2 µM [1, 14]: 96%
- activity at 2 µM [5, 15]: 48.9%
- activity at 1 µM [2, 16]: 118%
- EC50 (T. brucei; [7]): 520 nM
- initial hit against T. brucei ([3]; 2 μM): initial hits
- activity at 2 µM [3, 17]: 3.4%
- inhibition of growth at 2 µM ([3]; 2 μM, x = initial hit): > 50%
- CC50 (HepG2 cells; human, pH 7): 28000 nM
- CC50 at 48 h ([4]; pH 7, HepG2 CC50): 27800 nM
